# Experimental data as given in US8192962B2, “Processes for detecting toxic substances” (Daikin Industries, Ltd., priority 2001, dated 2012).
# Tested on: Metabolism protein genes
# Experiment: DNA chip mRNA expression in yeast, metabolism protein genes (Table 7)
# Type: cell-based, Saccharomyces cerevisiae S288C
# In short: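 S. cerevisiae S288C grown at 25° C in YPD were exposed in log phase for two hours to one toxic chemical at a growth-inhibiting, non-lethal concentration; untreated cells served as control. Poly(A) mRNA was reverse-transcribed with Cy3/Cy5-dUTP and hybridized to a whole-genome yeast DNA chip at 65° C for over 12 hours; values are fluorescence ratios versus untreated.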
smiles,measurement,setting,value
"[Cl][Cd][Cl] [(2), CdCl2]",The level of expressed mRNA in the presence of chemical substance/The level of expressed mRNA in the absence of chemical substance,yeast gene YAL012W,6.5
same,The level of expressed mRNA in the presence of chemical substance/The level of expressed mRNA in the absence of chemical substance,yeast gene YAL038W,1.0
same,level of expressed mRNA in the presence/in the absence of chemical substance,yeast gene YBR003W,0.8
same,level of expressed mRNA in the presence/in the absence of chemical substance,yeast gene YBR011C,1.8
same,level of expressed mRNA in the presence/in the absence of chemical substance,yeast gene YBR020W,0.5
same,The level of expressed mRNA in the presence of chemical substance/The level of expressed mRNA in the absence of chemical substance,yeast gene YBR023C,0.8
same,The level of expressed mRNA in the presence of chemical substance/The level of expressed mRNA in the absence of chemical substance,yeast gene YBR029C,0.2
same,The level of expressed mRNA in the presence of chemical substance/The level of expressed mRNA in the absence of chemical substance,yeast gene YBR183W,1.5
same,The level of expressed mRNA in the presence of chemical substance/The level of expressed mRNA in the absence of chemical substance,yeast gene YBR222C,1.2
same,The level of expressed mRNA in the presence of chemical substance/The level of expressed mRNA in the absence of chemical substance,yeast gene YBR256C,1.4
same,The level of expressed mRNA in the presence of chemical substance/The level of expressed mRNA in the absence of chemical substance,yeast gene YCL009C,0.9
same,The level of expressed mRNA in the presence of chemical substance/The level of expressed mRNA in the absence of chemical substance,yeast gene YCL064C,0.6
same,level of expressed mRNA in the presence/in the absence of chemical substance,yeast gene YCR010C,1.6
same,level of expressed mRNA in the presence/in the absence of chemical substance,yeast gene YCR034W,0.4
same,The level of expressed mRNA in the presence of chemical substance/The level of expressed mRNA in the absence of chemical substance,yeast gene YCR048W,1.1
same,The level of expressed mRNA in the presence of chemical substance/The level of expressed mRNA in the absence of chemical substance,yeast gene YCR098C,3.0
same,The level of expressed mRNA in the presence of chemical substance/The level of expressed mRNA in the absence of chemical substance,yeast gene YDR019C,0.5
same,level of expressed mRNA in the presence/in the absence of chemical substance,yeast gene YDR050C,1.3
same,level of expressed mRNA in the presence/in the absence of chemical substance,yeast gene YDR073W,0.9
same,level of expressed mRNA in the presence/in the absence of chemical substance,yeast gene YDR123C,0.8
same,level of expressed mRNA in the presence/in the absence of chemical substance,yeast gene YDR178W,2.0
same,level of expressed mRNA in the presence/in the absence of chemical substance,yeast gene YDR277C,1.2
same,level of expressed mRNA in the presence/in the absence of chemical substance,yeast gene YDR284C,1.5
same,level of expressed mRNA in the presence/in the absence of chemical substance,yeast gene YDR345C,0.9
same,The level of expressed mRNA in the presence of chemical substance/The level of expressed mRNA in the absence of chemical substance,yeast gene YDR380W,0.8
same,level of expressed mRNA in the presence/in the absence of chemical substance,yeast gene YDR400W,2.0
same,level of expressed mRNA in the presence/in the absence of chemical substance,yeast gene YDR408C,1.0
same,level of expressed mRNA in the presence/in the absence of chemical substance,yeast gene YDR483W,1.0
same,The level of expressed mRNA in the presence of chemical substance/The level of expressed mRNA in the absence of chemical substance,yeast gene YDR497C,0.5
same,The level of expressed mRNA in the presence of chemical substance/The level of expressed mRNA in the absence of chemical substance,yeast gene YDR502C,2.8
same,The level of expressed mRNA in the presence of chemical substance/The level of expressed mRNA in the absence of chemical substance,yeast gene YDR516C,1.5
same,level of expressed mRNA in the presence/in the absence of chemical substance,yeast gene YEL063C,0.8
same,level of expressed mRNA in the presence/in the absence of chemical substance,yeast gene YER015W,0.9
same,The level of expressed mRNA in the presence of chemical substance/The level of expressed mRNA in the absence of chemical substance,yeast gene YER026C,0.6
same,The level of expressed mRNA in the presence of chemical substance/The level of expressed mRNA in the absence of chemical substance,yeast gene YER053C,1.8
same,The level of expressed mRNA in the presence of chemical substance/The level of expressed mRNA in the absence of chemical substance,yeast gene YER069W,0.8
same,level of expressed mRNA in the presence/in the absence of chemical substance,yeast gene YER081W,1.9
same,The level of expressed mRNA in the presence of chemical substance/The level of expressed mRNA in the absence of chemical substance,yeast gene YER096W,2.3
same,level of expressed mRNA in the presence/in the absence of chemical substance,yeast gene YER120W,1.1
same,The level of expressed mRNA in the presence of chemical substance/The level of expressed mRNA in the absence of chemical substance,yeast gene YER178W,0.9
same,level of expressed mRNA in the presence/in the absence of chemical substance,yeast gene YFL011W,0.7
same,The level of expressed mRNA in the presence of chemical substance/The level of expressed mRNA in the absence of chemical substance,yeast gene YFL014W,7.2
same,The level of expressed mRNA in the presence of chemical substance/The level of expressed mRNA in the absence of chemical substance,yeast gene YFL030W,6.0
same,The level of expressed mRNA in the presence of chemical substance/The level of expressed mRNA in the absence of chemical substance,yeast gene YFL031W,1.3
same,The level of expressed mRNA in the presence of chemical substance/The level of expressed mRNA in the absence of chemical substance,yeast gene YFL056C,2.3
same,The level of expressed mRNA in the presence of chemical substance/The level of expressed mRNA in the absence of chemical substance,yeast gene YFL057C,5.8
same,The level of expressed mRNA in the presence of chemical substance/The level of expressed mRNA in the absence of chemical substance,yeast gene YFR047C,4.0
same,level of expressed mRNA in the presence/in the absence of chemical substance,yeast gene YGL012W,0.8
same,The level of expressed mRNA in the presence of chemical substance/The level of expressed mRNA in the absence of chemical substance,yeast gene YGL022W,0.8
same,level of expressed mRNA in the presence/in the absence of chemical substance,yeast gene YGL115W,0.6
same,The level of expressed mRNA in the presence of chemical substance/The level of expressed mRNA in the absence of chemical substance,yeast gene YGL126W,1.3
same,level of expressed mRNA in the presence/in the absence of chemical substance,yeast gene YGL205W,0.9
same,The level of expressed mRNA in the presence of chemical substance/The level of expressed mRNA in the absence of chemical substance,yeast gene YGL209W,1.6
same,The level of expressed mRNA in the presence of chemical substance/The level of expressed mRNA in the absence of chemical substance,yeast gene YGL248W,1.3
same,The level of expressed mRNA in the presence of chemical substance/The level of expressed mRNA in the absence of chemical substance,yeast gene YGR037C,1.2
same,The level of expressed mRNA in the presence of chemical substance/The level of expressed mRNA in the absence of chemical substance,yeast gene YGR055W,5.7
same,level of expressed mRNA in the presence/in the absence of chemical substance,yeast gene YGR096W,1.0
same,level of expressed mRNA in the presence/in the absence of chemical substance,yeast gene YGR191W,0.7
same,The level of expressed mRNA in the presence of chemical substance/The level of expressed mRNA in the absence of chemical substance,yeast gene YGR194C,1.0
same,level of expressed mRNA in the presence/in the absence of chemical substance,yeast gene YGR204W,1.1
same,The level of expressed mRNA in the presence of chemical substance/The level of expressed mRNA in the absence of chemical substance,yeast gene YGR256W,1.5
same,The level of expressed mRNA in the presence of chemical substance/The level of expressed mRNA in the absence of chemical substance,yeast gene YGR282C,0.7
same,level of expressed mRNA in the presence/in the absence of chemical substance,yeast gene YGR288W,0.5
same,level of expressed mRNA in the presence/in the absence of chemical substance,yeast gene YHR025W,0.8
same,The level of expressed mRNA in the presence of chemical substance/The level of expressed mRNA in the absence of chemical substance,yeast gene YHR111W,1.3
same,level of expressed mRNA in the presence/in the absence of chemical substance,yeast gene YHR123W,1.2
same,The level of expressed mRNA in the presence of chemical substance/The level of expressed mRNA in the absence of chemical substance,yeast gene YHR137W,1.0
same,The level of expressed mRNA in the presence of chemical substance/The level of expressed mRNA in the absence of chemical substance,yeast gene YHR174W,1.4
same,The level of expressed mRNA in the presence of chemical substance/The level of expressed mRNA in the absence of chemical substance,yeast gene YHR176W,2.0
same,level of expressed mRNA in the presence/in the absence of chemical substance,yeast gene YHR210C,1.0
same,level of expressed mRNA in the presence/in the absence of chemical substance,yeast gene YIL006W,1.1
same,The level of expressed mRNA in the presence of chemical substance/The level of expressed mRNA in the absence of chemical substance,yeast gene YIL045W,1.4
same,The level of expressed mRNA in the presence of chemical substance/The level of expressed mRNA in the absence of chemical substance,yeast gene YIL107C,0.8
same,The level of expressed mRNA in the presence of chemical substance/The level of expressed mRNA in the absence of chemical substance,yeast gene YIL154C,1.3
same,The level of expressed mRNA in the presence of chemical substance/The level of expressed mRNA in the absence of chemical substance,yeast gene YIL155C,0.7
same,The level of expressed mRNA in the presence of chemical substance/The level of expressed mRNA in the absence of chemical substance,yeast gene YIR034C,1.1
same,The level of expressed mRNA in the presence of chemical substance/The level of expressed mRNA in the absence of chemical substance,yeast gene YIR036C,1.7
same,The level of expressed mRNA in the presence of chemical substance/The level of expressed mRNA in the absence of chemical substance,yeast gene YJL031C,1.2
same,The level of expressed mRNA in the presence of chemical substance/The level of expressed mRNA in the absence of chemical substance,yeast gene YJL068C,2.7
same,The level of expressed mRNA in the presence of chemical substance/The level of expressed mRNA in the absence of chemical substance,yeast gene YJL088W,0.8
same,The level of expressed mRNA in the presence of chemical substance/The level of expressed mRNA in the absence of chemical substance,yeast gene YJL099W,1.2
same,level of expressed mRNA in the presence/in the absence of chemical substance,yeast gene YJL121C,0.5
same,level of expressed mRNA in the presence/in the absence of chemical substance,yeast gene YJL167W,1.4
same,The level of expressed mRNA in the presence of chemical substance/The level of expressed mRNA in the absence of chemical substance,yeast gene YJL172W,2.1
same,level of expressed mRNA in the presence/in the absence of chemical substance,yeast gene YJL216C,4.7
same,The level of expressed mRNA in the presence of chemical substance/The level of expressed mRNA in the absence of chemical substance,yeast gene YJL219W,2.5
same,level of expressed mRNA in the presence/in the absence of chemical substance,yeast gene YJR077C,1.1
same,The level of expressed mRNA in the presence of chemical substance/The level of expressed mRNA in the absence of chemical substance,yeast gene YJR137C,2.9
same,level of expressed mRNA in the presence/in the absence of chemical substance,yeast gene YJR143C,0.6
same,The level of expressed mRNA in the presence of chemical substance/The level of expressed mRNA in the absence of chemical substance,yeast gene YJR148W,1.4
